From US12649734B2, “Bioavailable protein disulfide isomerase inhibitors” (THE CLEVELAND CLINIC FOUNDATION, priority 2020, dated 2026)

What was measured:
[1] = test system: MM1.S cells; test: Cell viability assay (CellTiter-Glo), MM1.S; assay type: cell-based, human; conditions: MM cells, in vitro cell culture
Experimental: Cell vi-ability and LD50 for inhibitors were measured in 96 well culture plates (2×10^4 cells/well) after 72 h of treatment using CellTiter-Glo® Luminescent Cell Viability Assay (Promega, Madison, WI, USA). (A) Cell survival assay with MM1.S.luc and BTZ-resistant MM1.S.luc cells. […] (C) Comparison of PDIA1 protein levels in MM1.S.luc and MM1.S.luc BTZ-resistant cells. Band intensity was calculated with Image Lab Version 5.2.1. (D) Cell survival assay with 5TGM1.luc and (E) BTZ-resistant 5TGM1.luc cells. (F) MM1.S cell line was exposed to CCF642-34, and BTZ for 72 h for synergistic drug combination test according to Chou and Talalay method. If the […] remained less than 1, the two drugs were determined as synergistic. […] The number of colony-forming units were plotted for each treatment.
Cell viability assay: Cell viability was measured in 96 well culture plates (2×10^4 cells/well) using CellTiter-Glo® Luminescent Cell Viability Assay (Promega, Madison, WI, USA) according to the manufacturer's protocol.

[2] = test system: RPMI-8226 cells vs CD34+ HSPCs derived from healthy bone marrow; test: In vitro colony-forming assay, myeloma cells versus normal bone marrow CD34+ cells; assay type: cell-based, human; conditions: colonies scored on day 14
Experimental: In vitro colony-forming assays: Mononuclear cells derived from bone marrow or purified CD34+ cells from a healthy donor, cord blood, or MM cell RPMI-8226 were grown in semi-solid methylcellulose media (MethoCult™, H4435; STEMCELL Technologies) in the presence of indicated compounds and concentrations. A total of 10,000/mL normal bone marrow CD34+ cells and 1000/mL RPMI-8226 cells were plat-ed, and colonies were scored on day 14.

[3] = test system: MM1.S cells; test: RNA-seq gene expression profiling; assay type: cell-based, human; conditions: 3 μM, 6 h
Experimental: FIGS. 7A-7H provide graphs showing CCF642-34 is selective for PDIA1 inhibition-induced ER stress response pathway. MM1.S cells were treated with 3 μM of either CCF642 or CCF642-34 for 6 h, and gene expression analysis was performed by RNA sequencing. (A,B) Volcano plots showing CCF642-34 and CCF642 compared to DMSO control. The criteria for differential expression were at least a 2-fold change with p value less than 0.05. The analysis was performed in Originlab, Version 2019b (OriginLab Corporation, Northampton, MA, USA). […] The diagram was generated using a web-based bioinformatics server. (D,E) Hierarchical clusterings with heat map of MM1.S cells treated with vehicle CCF642-34 or CCF642 are shown for response to endoplasmic reticulum stress and unfolded protein response gene sets. (F-H) Heat maps of PERK and ATF6 target genes, Nrf2, and ER-associated degradation (ERAD) pathways are compared between control and inhibitor-treated MM1.S cells. Data analysis was performed using a web-based server and the Broad Institute Morpheus software.
RNA-seq and analysis: MM1.S cells were treated with 3 μM of either CCF642 or CCF642-34 for 6 h, and RNA was purified by using the NucleoSpin RNA kit (Takara Bio USA, Inc.; cat. #740955) according to the manufacturer's instruction. The RNA sequencings were completed as reported previously. Guan et al., Commun. Biol., 3, 1-13 (2020) The RNA-seq data were sub-mitted to the Gene Expression Omnibus (GEO) repository at the National Center for Biotechnology Information (NCBI) archives, with assigned GEO accession number GSE167097.

[4] = test system: 5TGM1-luc myeloma cells; test: 5TGM1-luc/C57BL/KaLwRij syngeneic mouse model of myeloma; assay type: in vivo
Experimental: FIGS. 8A & 8B provide graphs showing the stability of CCF642-34 and restriction of multiple myeloma in a syngeneic mouse model by PDIA1-inhibitor CCF642-34. (A) The stability of CCF642-34 was measured against oxidative metabolism by human liver microsomes. CCF642-34 (20 μM) was incubated with 0.25 mg/mL of human liver microsomes for 5 h. The residual compound at indicated time points was measured by HPLC (Agilent 1260 Infinity II) interfaced with reverse phase C18 column using 280 nm and 245 nm detection wavelength. The standard curve of known concentrations of CCF642-34 was obtained from the area under the peak at two wavelengths, and the remaining CCF642-34 was estimated. Data are representative of two independent experiments. (B) 5TGM1-luc/C57BL/KaLwRij mouse models of myeloma (3 males, 3 females per treatment group) were engrafted with 2×10^6 5TGM1-luc cells via tail vein injection and treated 3 times a week for 8 weeks per oral gavage with 20 mg/kg of CCF642-34 dissolved in 10% 2-hydroxy-propyl-o-cyclodextrin. The survival of each group was monitored, and Kaplan-Meier survival analysis was performed. All control animals required euthanasia before 52 days (due to paraparesis, weight loss, poor general condition), while 3 out of 6 mice treated with CCF642-34 lived beyond 6 months with no sign of disease.
Mouse experiment: Animal care and procedures were conducted in accordance with institutional guidelines approved by the Institutional Animal Care and Use Committee (IACUC). […]
To evaluate whether CCF642-34 achieved anti-myeloma efficacy after oral administration in vivo we used the 5TGM1-luc/C57BL/KaLwRij syngeneic mouse model. […] Mouse weight was monitored along with systemic symptoms of distress or disease. […] The intensity of luminescence was not good enough for the detection of bioluminescence, which is a common issue in the imaging of B57 black 6 mice. Therefore, the inventors primarily monitored the survival, and the disease burden was determined in the bone marrow cells at the time of sacrifice of a moribund mice. […]

[5] = 20 mg/kg oral gavage 3 times a week for 8 weeks

SMILES: NC(CC1CNc2ccccc21)C(=O)NCCCOc1ccc(N2C(=O)/C(=C/c3ccc([N+](=O)[O-])s3)SC2=S)cc1 (stereo not drawn) [CCF642-34]
- higher potency compared to CCF642 [1]: ~2 fold
- potency in restricting colony formation of RPMI-8226 compared to CD34+ HSPCs [2]: 20 fold
- TRIB3 upregulation compared to controls [3]: ~20 fold
- number of downregulated genes [3]: 156 genes
- number of upregulated genes [3]: 206 genes
- number of genes with changed expression compared to vehicle control ([3]; 2-fold change, p less than 0.05): 362 genes
- mice living beyond 6 months with no sign of disease [4, 5]: 3 out of 6
- mice living beyond 180 days with no sign of disease [4, 5]: 3 out of 6
- adverse events as assessed by weight and animal behavior ([4]; oral treatment, 8 weeks): no obvious adverse events
